From patent publication US20150087673A1, “METHODS FOR USING AND BIOMARKERS FOR AMPK-ACTIVATING COMPOUNDS” (RIGEL PHARMACEUTICALS, INC., priority 2013, published 2015)

test system: AMPK; assay: AMPK activation assay (enzyme-linked immunosorbent assay); assay type: cell-based
How it was run: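 Compounds were tested for their capacity to activate the kinase using standard, commercially available kit reagents and procedures.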

**Q.** How did the EC50 turn out when `CC(=O)Nc1ccc(OC2CCN(C(=O)c3ccc(C(=O)Nc4ccc(Oc5ccc(F)cc5)nc4)nc3)CC2)cc1` [Compound 408, 5-(4-(4-acetamidophenoxy)piperidine-1-carbonyl)-N-(6-(4-fluorophenoxy)pyridin-3-yl)picolinamide] was run?
**A.** < 500 nM

**Q.** `O=C(c1ccc(Nc2ccc(Oc3ccccc3)cc2)nc1)N1CCN(Cc2ccc(F)cc2)CC1` [Compound 34, (4-(4-fluorobenzyl)piperazin-1-yl)(6-(4-phenoxyphenylamino)pyridin-3-yl)methanone] was tested. Which EC50 did it give?
**A.** 1000 to 5000 nM

**Q.** For `N#Cc1ccc(CN2CCC(NC(=O)c3ccc(C(=O)N4CCN(c5ccc(C(F)(F)F)cc5)CC4)cn3)CC2)cc1` [Compound 339, N-(1-(4-cyanobenzyl)piperidin-4-yl)-5-(4-(4-(trifluoromethyl)phenyl)piperazine-1-carbonyl)picolinamide], which EC50 is on record?
**A.** < 500 nM

**Q.** How did the EC50 turn out when `CS(=O)(=O)c1ccc(C(=O)C2CCN(C(=O)c3ccc(C(=O)NC4CCN(Cc5ccc(F)cc5)CC4)nc3)CC2)cc1` [Compound 225, N-(1-(4-fluorobenzyl)piperidin-4-yl)-5-(4-(4-(methylsulfonyl)benzoyl)piperidine-1-carbonyl)picolinamide] was run?
**A.** < 500 nM

**Q.** How did the EC50 turn out when `CC(=O)c1ccc(OC2CCN(C(=O)c3ccc(C(=O)NC4CCN(Cc5ccc(C#N)cc5)CC4)nn3)CC2)cc1` [Compound 437, 6-(4-(4-acetylphenoxy)piperidine-1-carbonyl)-N-(1-(4-cyanobenzyl)piperidin-4-yl)pyridazine-3-carboxamide] was run?
**A.** < 500 nM

**Q.** For `CN(C)C(=O)c1ccc(OC2CCN(C(=O)c3ccc(C(=O)NC4CCN(Cc5ccc(C#N)cc5)CC4)nc3)CC2)cc1` [Compound 357, N-(1-(4-cyanobenzyl)piperidin-4-yl)-5-(4-(4-(dimethylcarbamoyl)phenoxy)piperidine-1-carbonyl)picolinamide], which EC50 is on record?
**A.** < 500 nM

**Q.** `N#Cc1ccc(CN2CCC(NC(=O)c3ccc(C(=O)N4CCCC(Cc5ccc(F)cc5)C4)cn3)CC2)cc1` (stereo not shown) [Compound 152, N-(1-(4-cyanobenzyl)piperidin-4-yl)-5-(3-(4-fluorobenzyl)piperidine-1-carbonyl)picolinamide] was tested. Which EC50 did it give?
**A.** < 500 nM

**Q.** How did the EC50 turn out when `N#Cc1ccc(CN2CCC(NC(=O)c3ccc(C(=O)N4C5CCC4CC(Oc4ccc(C#N)cc4)C5)cn3)CC2)cc1` [Compound 280, N-(1-(4-cyanobenzyl)piperidin-4-yl)-5-((1R,3r,5S)-3-(4-cyanophenoxy)-8-azabicyclo[3.2.1]octane-8-carbonyl)picolinamide] was run?
**A.** < 500 nM

**Q.** For `N#Cc1ccc(CN2CCC(NC(=O)c3ccc(C(=O)N4CCC(Oc5ccc(C#N)cc5)CC4)nn3)CC2)cc1` [Compound 388, N-(1-(4-cyanobenzyl)piperidin-4-yl)-6-(4-(4-cyanophenoxy)piperidine-1-carbonyl)pyridazine-3-carboxamide], which EC50 is on record?
**A.** < 500 nM

**Q.** Which EC50 does the source give for `COc1ccc(C(=O)C2CCN(C(=O)c3ccc(C(=O)NC4CCN(Cc5ccc(N6CCCC6)cc5)CC4)nc3)CC2)cc1` [Compound 194, 5-(4-(4-methoxybenzoyl)piperidine-1-carbonyl)-N-(1-(4-(pyrrolidin-1-yl)benzyl)piperidin-4-yl)picolinamide] here?
**A.** < 500 nM

**Q.** With `Cc1ccc(Oc2ccc(NC(=O)c3ccc(C(=O)N4CCN(Cc5ccc(F)cc5)CC4)cn3)cc2)cc1` [Compound 53, 5-(4-(4-fluorobenzyl)piperazine-1-carbonyl)-N-(4-(4-methylphenoxy)phenyl)picolinamide] as the compound, how does the EC50 read?
**A.** < 500 nM

**Q.** `COc1ccc(C(=O)C2CCN(C(=O)c3cnc(C(=O)NC4CCN(Cc5ccc(C#N)cc5)CC4)cn3)CC2)cc1` [Compound 211, N-(1-(4-cyanobenzyl)piperidin-4-yl)-5-(4-(4-methoxybenzoyl)piperidine-1-carbonyl)pyrazine-2-carboxamide] was tested. Which EC50 did it give?
**A.** < 500 nM

**Q.** With `O=C(Nc1ccc(Oc2ccccc2)cc1)c1ccc(C(=O)N2CCN(Cc3ccc(F)cc3)CC2)cn1` [Compound 16, 5-(4-(4-fluorobenzyl)piperazine-1-carbonyl)-N-(4-phenoxyphenyl)picolinamide] as the compound, how does the EC50 read?
**A.** < 500 nM

**Q.** For `COc1ccc(CN2CCC(NC(=O)c3ccc(C(=O)N4CCC(C(=O)c5ccc(OC)cc5)CC4)cn3)CC2)cc1` [Compound 163, 5-(4-(4-methoxybenzoyl)piperidine-1-carbonyl)-N-(1-(4-methoxybenzyl)piperidin-4-yl)picolinamide], which EC50 is on record?
**A.** < 500 nM

**Q.** For `COc1cc(C#N)ccc1OC1CCN(c2ccc(C(=O)NC3CCN(Cc4ccc(C#N)cc4)CC3)nc2)CC1` [Compound 286, 5-(4-(4-cyano-2-methoxyphenoxy)piperidin-1-yl)-N-(1-(4-cyanobenzyl)piperidin-4-yl)picolinamide], which EC50 is on record?
**A.** < 500 nM

**Q.** With `COc1ccc(C(=O)C2CCN(C(=O)c3ccc(C(=O)NC4CCN(Cc5cc(F)cc(F)c5)CC4)nc3)CC2)cc1` [Compound 287, N-(1-(3,5-difluorobenzyl)piperidin-4-yl)-5-(4-(4-methoxybenzoyl)piperidine-1-carbonyl)picolinamide] as the compound, how does the EC50 read?
**A.** < 500 nM

**Q.** `N#Cc1ccc(CN2CCC(C(=O)Nc3ccc(C(=O)N4CCC(Oc5ccc(F)cc5)CC4)cn3)CC2)cc1` [Compound 173, 1-(4-cyanobenzyl)-N-(5-(4-(4-fluorophenoxy)piperidine-1-carbonyl)pyridin-2-yl)piperidine-4-carboxamide] was tested. Which EC50 did it give?
**A.** < 500 nM

**Q.** `O=C(NCc1ccccc1)c1ccc(C(=O)N2CCN(Cc3ccccc3)CC2)cn1` [Compound 116, N-benzyl-5-(4-benzylpiperazine-1-carbonyl)picolinamide] was tested. Which EC50 did it give?
**A.** 1000 to 5000 nM

**Q.** `N#Cc1ccc(O[C@H]2CC[C@@H](NC(=O)c3ccc(C(=O)N4CC[C@H](Oc5ccc(F)cc5)C4)cn3)CC2)cc1` [Compound 176, N-((cis)-4-(4-cyanophenoxy)cyclohexyl)-5-((S)-3-(4-fluorophenoxy)pyrrolidine-1-carbonyl)picolinamide] was tested. Which EC50 did it give?
**A.** 1000 to 5000 nM

**Q.** For `N#Cc1ccc(CN2CCC(NC(=O)c3ccc(C(=O)N4CCC(C(=O)c5ccc(-n6cccn6)cc5)CC4)cn3)CC2)cc1` [Compound 375, 5-(4-(4-(1H-pyrazol-1-yl)benzoyl)piperidine-1-carbonyl)-N-(1-(4-cyanobenzyl)piperidin-4-yl)picolinamide], which EC50 is on record?
**A.** < 500 nM

**Q.** How did the EC50 turn out when `O=C(NC1CCN(Cc2ccccc2)CC1)c1ccc(Nc2cccc(Oc3ccccc3)c2)cn1` [Compound 112, N-(1-benzylpiperidin-4-yl)-5-(3-phenoxyphenylamino)picolinamide] was run?
**A.** 1000 to 5000 nM

**Q.** `COc1ccc(C(=O)C2CCN(C(=O)c3ccc(C(=O)N[C@H]4CC[C@@H](Oc5ccc(C#N)c(F)c5)CC4)nc3)CC2)cc1` [Compound 198, N-((cis)-4-(4-cyano-3-fluorophenoxy)cyclohexyl)-5-(4-(4-methoxybenzoyl)piperidine-1-carbonyl)picolinamide] was tested. Which EC50 did it give?
**A.** < 500 nM

**Q.** `O=C(NC1CCN(C(=O)C2CCCCC2)CC1)c1ccc(C(=O)N2CCN(Cc3ccc(F)cc3)CC2)cn1` [Compound 7, N-(1-(cyclohexanecarbonyl)piperidin-4-yl)-5-(4-(4-fluorobenzyl)piperazine-1-carbonyl)picolinamide] was tested. Which EC50 did it give?
**A.** < 500 nM

**Q.** With `N#Cc1ccc(CN2CCC(NC(=O)c3ccc(C(=O)N4CCN(c5ccc(F)cc5)CC4)cn3)CC2)cc1` [Compound 341, N-(1-(4-cyanobenzyl)piperidin-4-yl)-5-(4-(4-fluorophenyl)piperazine-1-carbonyl)picolinamide] as the compound, how does the EC50 read?
**A.** < 500 nM

**Q.** How did the EC50 turn out when `CS(=O)(=O)c1ccc(C(=O)C2CCN(C(=O)c3ccc(C(=O)Nc4ccc(Oc5ccc(F)cc5)nc4)cn3)CC2)cc1` [Compound 224, N-(6-(4-fluorophenoxy)pyridin-3-yl)-6-(4-(4-(methylsulfonyl)benzoyl)piperidine-1-carbonyl)nicotinamide] was run?
**A.** < 500 nM

**Q.** Which EC50 does the source give for `COc1ccc(C(=O)C2CCN(C(=O)c3ccc(C(=O)N[C@H]4CCN(Cc5ccc(C#N)cc5)C[C@@H]4F)cn3)CC2)cc1` [Compound 453, N-((3S,4S)-1-(4-cyanobenzyl)-3-fluoropiperidin-4-yl)-6-(4-(4-methoxybenzoyl)piperidine-1-carbonyl)nicotinamide] here?
**A.** < 500 nM

**Q.** `CS(=O)(=O)c1ccc(OC2CCN(C(=O)c3ccc(C(=O)Nc4ccc(Oc5ccc(F)cc5)nc4)nc3)CC2)cc1` [Compound 231, N-(6-(4-fluorophenoxy)pyridin-3-yl)-5-(4-(4-(methylsulfonyl)phenoxy)piperidine-1-carbonyl)picolinamide] was tested. Which EC50 did it give?
**A.** < 500 nM

**Q.** `O=C(Nc1ccccc1)c1ccc(C(=O)N2CCN(Cc3ccc(F)cc3)CC2)cn1` [Compound 107, 5-(4-(4-fluorobenzyl)piperazine-1-carbonyl)-N-phenylpicolinamide] was tested. Which EC50 did it give?
**A.** 5000 to 10000 nM

**Q.** Which EC50 does the source give for `O=C(NCc1ccccc1)c1ccc(C(=O)N2CCN(Cc3ccc(F)cc3)CC2)cn1` [Compound 115, N-benzyl-5-(4-(4-fluorobenzyl)piperazine-1-carbonyl)picolinamide] here?
**A.** 5000 to 10000 nM

**Q.** For `O=C(Nc1ccc(Oc2ccc(F)cc2)nc1)c1ccc(C(=O)N2CCC(Oc3ccc(S(=O)(=O)C4CC4)cc3)CC2)nc1` [Compound 247, 6-(4-(4-(cyclopropylsulfonyl)phenoxy)piperidine-1-carbonyl)-N-(6-(4-fluorophenoxy)pyridin-3-yl)nicotinamide], which EC50 is on record?
**A.** < 500 nM

**Q.** Which EC50 does the source give for `O=C(c1ccc(C(=O)N2CCN(CCc3ccccc3)CC2)nc1)N1CCN(Cc2ccc(F)cc2)CC1` [Compound 88, (4-(4-fluorobenzyl)piperazin-1-yl)(6-(4-phenethylpiperazine-1-carbonyl)pyridin-3-yl)methanone] here?
**A.** 1000 to 5000 nM

**Q.** For `COc1ccc(O[C@H]2CC[C@@H](NC(=O)c3ccc(C(=O)N4CCC(Oc5ccc(C(F)(F)F)cc5)CC4)cn3)CC2)cc1` [Compound 185, N-((cis)-4-(4-methoxyphenoxy)cyclohexyl)-5-(4-(4-(trifluoromethyl)phenoxy)piperidine-1-carbonyl)picolinamide], which EC50 is on record?
**A.** < 500 nM

**Q.** How did the EC50 turn out when `O=C(NC1CCN(Cc2ccc(F)cc2)CC1)c1ccc(C(=O)N2CCC(C(=O)c3ccc(F)cc3)CC2)cn1` [Compound 181, 5-(4-(4-fluorobenzoyl)piperidine-1-carbonyl)-N-(1-(4-fluorobenzyl)piperidin-4-yl)picolinamide] was run?
**A.** < 500 nM

**Q.** Which EC50 does the source give for `CS(=O)(=O)c1ccc(CN2CCC(NC(=O)c3ccc(C(=O)N4CCC(C(=O)c5ccc(F)cc5F)CC4)nc3)CC2)cc1` [Compound 213, 6-(4-(2,4-difluorobenzoyl)piperidine-1-carbonyl)-N-(1-(4-(methylsulfonyl)benzyl)piperidin-4-yl)nicotinamide] here?
**A.** < 500 nM
